Patent US7238813B2, “Chemical compounds” (Smithkline Beecham Corporation, priority 2000, dated 2007)
Structures can show the parent of a compound that is named as a salt.

Columns and labels:
[1] = system: Human umbilical cord endothelial cells (HUVEC); experiment: VEGF-driven cellular proliferation assay: BrdU incorporation assay (VEGF-C); format: cell-based; set-up: key to VEGF-C: + = pIC50 of 5.0–6.0; ++ = pIC50 of 6.0–7.0; +++ = pIC50 of > 7.0; − = a negative or inconclusive result; conditions: for IC50: Homo sapiens
Method: VFGF-driven Cellular Proliferation Assay: BrdU Incorporation Assay (VEGF-C)
Human umbilical cord endothelial cells (HUVEC, Clonetics, CC2519) were passaged in Type I collagen-coated 100-mm petridishes in EGM-MV medium (Clonetics, CC3125) at 37° C. in a humidified 5% CO2, 95% air incubator. (HUVEC passaged more than 6 times in vitro were discarded and not subjected to assaying.) The cells were harvested using trypsin/EDTA, counted using a haemocytometer and plated at 5000 cells/well in a Type I-collagen coated 96-well plate (Becton Dickinson, 354407) in M199 medium (Gibco BRL, 12340-030) containing 5% FBS (Hyclone, A 1115-L) and gentamicin (at 50 μg/ml, Gibco BRL). After incubation overnight at 37° C., the media were replaced with 100 μl of M199 serum-free medium containing compounds at various concentrations with 0.6% DMSO and gentamicin. The compounds were diluted in serum-free M199 medium from 10 mM stock solutions prepared in 100% DMSO. After a 30 min incubation at 37° C., the cells were fed with 100 μl of serum-free M199 medium containing gentamicin, 0.2% culture-grade bovine serum albumin (BSA, Sigma A1993) and 20 ng/ml of VEGF (R&D systems, 293-VE) or 0.6 ng/ml of basic FGF (R&D systems, 233-FB), and cultured at 37° C. for another 24 h. The cells were pulsed with bromodeoxyuridine (BrdU at 10 μM in serum-free M199) at 37° C. for an additional 24 h. The incorporation of BrdU into the proliferating HUVEC were analyzed using BrdU Cell Proliferation ELISA (Roche Molecular Biochemicals, 1647229) according to the manufacturer's protocols. The optical density at 450 nm was measured with a multilabel counter (ARVO SX, Wallac). The percent inhibition of cell growth was calculated relative to blank control wells. The concentration of test compound that inhibits 50% of cell growth (IC50) was interpolated using nonlinear regression (Levernberg-Marquardt) and the equation, y=Vmax (1−x/(K+x))+Y2, where “K” was equal to the IC50. The IC50, values were converted to pIC50 values, i.e., −log IC50 in Molar concentration.

[2] = target: T1, GST-TIE2 (intracellular domains of human TIE2) (Homo sapiens, UniProt Q02763); experiment: TIE-2 enzyme assay (TIE2-E), LANCE method; format: biochemical; conditions: 80 uM ATP
T1 construct: made in house
T1 sequence (Q02763 762-1104): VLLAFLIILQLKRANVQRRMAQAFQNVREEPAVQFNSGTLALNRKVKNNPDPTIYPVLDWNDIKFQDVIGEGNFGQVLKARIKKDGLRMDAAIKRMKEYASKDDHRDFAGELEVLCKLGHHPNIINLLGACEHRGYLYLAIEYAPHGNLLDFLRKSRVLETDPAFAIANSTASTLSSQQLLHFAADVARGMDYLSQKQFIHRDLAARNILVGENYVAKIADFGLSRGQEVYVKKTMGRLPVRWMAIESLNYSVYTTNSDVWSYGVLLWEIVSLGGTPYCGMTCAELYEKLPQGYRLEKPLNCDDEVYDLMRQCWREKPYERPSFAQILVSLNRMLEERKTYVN
Method: TIE-2Enzyme Assay (TIE2-E)
The TIE-2 enzyme assay used the LANCE method (Wallac) and GST-TIE2, baculovirus expressed recombinant constructs of the intracellular domains of human TIE2 (amino acids 762–1104, GenBank Accession # L06139) tagged by GST). […] This peptide phosphorylation was detected using the following procedure: for enzyme preactivation, GST-TIE2 was incubated for 30 mins at room temperature with 2 mM ATP, 5 mM MgCl2 and 12.5 mM DTT in 22.5 mM HEPES buffer (pH7.4). Preactivated GST-TIE2 was incubated for 30 mins at room temperature in 96 well plates with 1 μM D1-15 peptide, 80 uM ATP, 10 mM MgCl2, 0.1 mg/ml BSA and the test compound (diluted from a 10 mM stock in DMSO, final DMSO concentration was 2.4%) in 1 mM HEPES (pH7.4). The reaction was stopped by the addition of EDTA (final concentration 45 mM). Streptavidin linked-APC (allophycocyanin, Molecular Probe) and Europium-labeled anti-phosphorylated tyrosine antibody (Wallac) were then added at the final concentration of 17 μg/well and 2.1 μg/well, respectively. The APC signal was measured using an ARVO multilabel counter. (Wallac Berthold Japan). The percent inhibition of activity was calculated relative to blank control wells. The concentration of test compound that inhibits 50% of activity (IC50) was interpolated using nonlinear regression (Levernberg-Marquardt) and the equation, y=Vmax (1−x/(K+x))+Y2, where “K” was equal to the IC50. The IC50 values were converted to pIC50 values, i.e., −log IC50 in Molar concentration.

[3] = target: T2, TIE2 intracellular domain/c-fms extracellular domain (TIE2/c-fms) chimeric protein expressing mouse 3T3 cells (Homo sapiens, UniProt Q02763); experiment: TIE-2 autophosphorylation assay (TIE2-C), ELISA; format: cell-based; conditions: TIE2/c-fms 3T3 cells, MCSF activation
T2 construct: a TIE2 intracellular domain/c-fms extracellular domain (TIE2/c-fms) chimeric protein; expressed in transfected cells; host or cells: mouse 3T3 cells
T2 sequence (Q02763 770-1124 limits assumed, change not shown): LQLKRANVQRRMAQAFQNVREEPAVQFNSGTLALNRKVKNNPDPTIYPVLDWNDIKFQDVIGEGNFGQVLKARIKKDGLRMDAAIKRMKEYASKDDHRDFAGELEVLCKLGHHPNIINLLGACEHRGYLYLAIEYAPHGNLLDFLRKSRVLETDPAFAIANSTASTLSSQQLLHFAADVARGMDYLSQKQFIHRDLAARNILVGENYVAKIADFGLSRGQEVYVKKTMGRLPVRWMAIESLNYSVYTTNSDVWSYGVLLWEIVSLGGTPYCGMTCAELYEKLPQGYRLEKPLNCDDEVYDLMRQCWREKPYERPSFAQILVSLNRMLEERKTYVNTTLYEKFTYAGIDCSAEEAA
Method: TIE-2 Autophosphorylation Assay (TIE2-C)
The TIE-2 autophosphorylation assay used an ELISA method and a TIE2 intracellular domain/c-fms extracellular domain (TIE2/c-fms) chimeric protein expressing mouse 3T3 cells. This assay measured the autophosphorylation level of TIE2 protein expressed in cells. The cells were cultured in high glucose DMEM (Sigma) containing 10% serum at 37° C. in a humidified 10% CO2, 90% air incubator. The test compound (diluted from a 10 mM stock in DMSO, final DMSO concentration was 0.1%) was incubated with TIE2/c-fms expressing cells for 1 hr in serum free DMEM in 96 well plates followed by the activation of TIE2/c-fms receptor using c-fms ligand, MCSF (macrophage colony stimulating factor). The culture media was removed by aspiration and the cells incubated for at least 30 mins on ice with lysis buffer containing 137 mM NaCl, 2 mM EDTA, 10% glycerol, […] sodium ortho vanadate and complete protease inhibitor cocktail (Roche) in 20 mM Tris-HCl (pH8.0). The cell extracts were transferred into Rat anti-c-fms antibody coated 96 well plates and incubated for 12 hrs at 4° C. The extracts were removed by aspiration and the plate was incubated with biotinylated anti-phosphotyrosine antibody, PT66 (Sigma) and then with HRP (Horseradish Peroxidase)-labeled streptavidin (PIERCE). The optical density at 450 nm derived from HRP catalyzed TMB was measured with an ARVO multilabel counter. (Wallac Berthold Japan). The percent inhibition of activity was calculated relative to blank control wells. The concentration of test compound that inhibits 50% of activity (IC50) was interpolated using nonlinear regression (Levernberg-Marquardt) and the equation, y=Vmax (1−x/(K+x))+Y2, where “K” was equal to the IC50. The IC50 values were converted to pIC50 values, i.e., −log IC50 in Molar concentration.

GST-VEGFR2 = target: T3, GST-VEGFR2 (Homo sapiens, UniProt P35968); experiment: VEGF-R2 enzyme assay (VEGF-E), LANCE method; format: biochemical; conditions: 75 μM ATP
T3 construct: GST-VEGFR2, baculovirus expressed recombinant constructs of the intracellular domains of human TIE2 tagged by GST; made in house
T3 sequence (P35968 786-1356 limits assumed): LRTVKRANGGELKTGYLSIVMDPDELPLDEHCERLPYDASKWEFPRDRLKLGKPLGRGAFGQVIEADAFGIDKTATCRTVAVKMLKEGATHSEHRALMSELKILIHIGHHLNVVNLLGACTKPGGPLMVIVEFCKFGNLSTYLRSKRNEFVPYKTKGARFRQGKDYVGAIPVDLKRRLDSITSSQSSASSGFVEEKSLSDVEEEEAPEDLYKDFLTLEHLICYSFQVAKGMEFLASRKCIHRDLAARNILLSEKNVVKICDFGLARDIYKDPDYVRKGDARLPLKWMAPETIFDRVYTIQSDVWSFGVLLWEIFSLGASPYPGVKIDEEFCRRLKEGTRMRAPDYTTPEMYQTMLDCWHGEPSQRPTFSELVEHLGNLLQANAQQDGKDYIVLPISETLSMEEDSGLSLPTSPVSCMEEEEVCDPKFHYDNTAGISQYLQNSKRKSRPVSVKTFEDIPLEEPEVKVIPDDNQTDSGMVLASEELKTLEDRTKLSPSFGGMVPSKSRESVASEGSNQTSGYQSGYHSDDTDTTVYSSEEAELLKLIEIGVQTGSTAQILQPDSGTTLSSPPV
Method: VEGF-R2 Enzyme Assay (VEGF-E)
The VEGF enzyme assay used the LANCE method (Wallac) and GST-VEGFR2, baculovirus expressed recombinant constructs of the intracellular domains of human […] tagged by GST. […] The reaction was stopped by the addition of EDTA (final concentration 50 mM). Streptavidin linked-APC (allophycocyanin, Molecular Probe) and Europium-labeled anti-phosphorylated tyrosine antibody (Wallac) were then added at the final concentration of 15 nM and 1 nM, respectively. The APC signal was measured using an ARVO multilabel counter (Wallac Berthold, Japan). The percent inhibition of activity was calculated relative to blank control wells. The concentration of test compound that inhibits 50% of activity (IC50) was interpolated using nonlinear regression (Levernberg-Marquardt) and the equation, y=Vmax (1−x/(K+x))+Y2, where “K” was equal to the IC50. The IC50 values were converted to pIC50 values, i.e., −log IC50 in Molar concentration.

SMILES | IC50 [2] [nM] | IC50 [3] [nM] | IC50 (GST-VEGFR2) [nM] | VEGF-E (GST-VEGFR2) | VEGF-C [1] | IC50 [1] [nM]
CC(=O)Nc1nc2cc(Oc3ccc(NC(=O)Nc4cc(C(F)(F)F)ccc4F)nc3)ccc2[nH]1 [Example 36, N-(5-(2-((2-fluoro-5-(trifluoromethyl)phenyl)aminocarbonylamino)-5-pyridyloxy)-1H-benzimidazol-2-yl)acetamide dihydrochloride] | < 100 | < 100 |  |  | − | 
COC(=O)Nc1nc2cc(Oc3ccc(NC(=S)Nc4cccc(OC)c4)cc3)ccc2[nH]1 [Example 185, Methyl N-(5-(4-((3-methoxyphenyl)aminothiocarbonylamino)phenoxy)-1H-benzimidazol-2-yl)carbamate] |  |  | 100 to 1000 |  |  | 1000 to 10000
CC(=O)Nc1nc2cc(Oc3ccc(NC(=O)Nc4cc(C(F)(F)F)ccc4F)cc3)ccc2[nH]1 [Example 25, N-(5-(4-((2-Fluoro-5-(trifluoromethyl)phenyl)aminocarbonylamino)phenoxy)-1H-benzimidazol-2-yl)acetamide] |  |  |  |  |  | < 100
COC(=O)Nc1nc2ncc(Oc3ccc(NC(=O)Nc4cc(C(F)(F)F)ccc4F)cc3)cc2[nH]1.Cl [Example 75, Methyl N-(6-(4-((2-fluoro-5-(trifluoromethyl)phenyl)aminocarbonylamino)phenoxy)-3,4-diaza-1H-indole-2-yl)carbamate dihydrochloride] | 100 to 1000 | < 100 |  |  | − | 
CCc1cccc(NC(=O)Nc2ccc(Sc3ccc4nc(NC(=O)OC)[nH]c4c3)cc2)c1 [Example 7, Methyl N-(5-(4-((3-ethylphenyl)aminocarbonylamino)phenylthio)-1H-benzimidazol-2-yl)carbamate] | < 100 |  |  | − | − | 
COC(=O)Nc1nc2ccc(Sc3ccc(NC(=O)Nc4cc(C(F)(F)F)ccc4F)cc3)cc2[nH]1 [Example 9, Methyl N-(5-(4-((2-fluoro-5-(trifluoromethyl)phenyl)aminocarbonylamino)phenylthio)-1H-benzimidazol-2-yl)carbamate] |  |  |  |  | − | 
COC(=O)Nc1nc2c(Br)cc(Oc3ccc(NC(=O)Nc4cc(C(F)(F)F)ccc4F)cc3)cc2s1.Cl [Example 65] |  |  |  |  | − | 
O=C(Nc1ccc(Oc2ccc3[nH]c(NC(=O)c4ccco4)nc3c2)cc1)Nc1cc(C(F)(F)F)ccc1F [Example 27, N-(5-(4-((2-Fluoro-5-(trifluoromethyl)phenyl)aminocarbonylamino)phenoxy)-1H-benzimidazol-2-yl)(2-fury)formamide] |  |  |  |  |  | 100 to 1000

Further lines, with some results ahead:

IC50 [2] [nM] | IC50 [3] [nM] | IC50 (GST-VEGFR2) [nM] | VEGF-E (GST-VEGFR2) | SMILES | VEGF-C [1] | IC50 [1] [nM]
< 100 | < 100 |  |  | COC(=O)Nc1nc2cc(Oc3ccc(NC(=O)Nc4cccc(C(C)(C)C)c4)cc3)ccc2[nH]1 [Example 21, Methyl N-(5-(4-((3-t-butylphenyl)aminocarbonylamino)phenoxy)-1H-benzimidazol-2-yl)carbamate] | − | 
< 100 |  | < 100 |  | COC(=O)Nc1nc2ccc(Sc3ccc(NC(=O)Nc4cc([N+](=O)[O-])ccc4F)cc3)cc2[nH]1 [Example 8, Methyl N-(5-(4-((2-fluoro-5-nitrophenyl)aminocarbonylamino)phenylthio)-1H-benzimidazol-2-yl)carbamate] | − | 
< 100 | 100 to 1000 |  |  | COC(=O)Nc1nc2cc(Oc3cccc(NC(=O)Nc4cccc(C(F)(F)F)c4)c3)ccc2[nH]1 [Example 20, Methyl N-(5-(3-((3-(trifluoromethyl)phenyl)aminocarbonylamino)phenoxy)-1H-benzimidazol-2-yl)carbamate] |  | < 100
100 to 1000 |  | < 100 |  | COC(=O)Nc1nc2ccc(Sc3ccc(NC(=O)Nc4cc(C(F)(F)F)cc(C(F)(F)F)c4)cc3)cc2[nH]1 [Example 3, Methyl N-(5-(4-((3,5-di(trifluoromethyl)phenyl)aminocarbonylamino)phenylthio)-1H-benzimidazol-2-yl)carbamate] | − | 
< 100 | < 100 |  |  | CN1CCN(CC(=O)Nc2nc3ccc(Oc4ccc(NC(=O)Nc5cc(C(F)(F)F)ccc5F)cc4)cc3[nH]2)CC1 [Example 101, N-(5-(4-((2-Fluoro-5-(trifluoromethyl)phenyl)aminocarbonylamino)phenoxy)-1H-benzimidazol-2-yl)(4-methyl-1-piperazino)acetamide] |  | < 100
< 100 |  | 1000 to 10000 |  | COC(=O)Nc1nc2ccc(Sc3ccc(NC(=O)Nc4cc([N+](=O)[O-])ccc4C)cc3)cc2[nH]1 [Example 6, Methyl N-(5-(4-((2-methyl-5-nitrophenyl)aminocarbonylamino)phenylthio)-1H-benzimidazol-2-yl)carbamate] | − | 
 |  | < 100 |  | COC(=O)Nc1nc2ccc(Oc3ccc(NC(=O)Nc4cc(C(F)(F)F)ccc4F)cc3)cc2[nH]1 [Example 10, Methyl N-(5-(4-((2-fluoro-5-(trifluoromethyl)phenyl)aminocarbonylamino)phenoxy)-1H-benzimidazol-2-yl)carbamate] |  | < 100
